According to patent US20260200927A1, “NON PEPTIDERGIC AGONISTS OF OXYTOCIN RECEPTOR” (UNIVERSITE DE STRASBOURG, priority 2022, published 2026):

Key:
[1] = target: V1A-R (Homo sapiens, UniProt P37288); experiment: V1A receptor antagonism measured as calcium signal; format: cell-based; settings: antagonist, n = 3, read-out: V1A-R (Antago) IC50
[2] = target: T1, oxytocin receptor (Homo sapiens, UniProt P30559); experiment: IP-One IP1 accumulation assay in CHO cell lines expressing oxytocin receptor (agonism); format: cell-based; settings: CHO cells expressing oxytocin receptor, n = 3, read-out: OT-R EC50
T1 construct: expressed in transfected cells; host or cells: CHO cell lines
T1 sequence (P30559 1-389): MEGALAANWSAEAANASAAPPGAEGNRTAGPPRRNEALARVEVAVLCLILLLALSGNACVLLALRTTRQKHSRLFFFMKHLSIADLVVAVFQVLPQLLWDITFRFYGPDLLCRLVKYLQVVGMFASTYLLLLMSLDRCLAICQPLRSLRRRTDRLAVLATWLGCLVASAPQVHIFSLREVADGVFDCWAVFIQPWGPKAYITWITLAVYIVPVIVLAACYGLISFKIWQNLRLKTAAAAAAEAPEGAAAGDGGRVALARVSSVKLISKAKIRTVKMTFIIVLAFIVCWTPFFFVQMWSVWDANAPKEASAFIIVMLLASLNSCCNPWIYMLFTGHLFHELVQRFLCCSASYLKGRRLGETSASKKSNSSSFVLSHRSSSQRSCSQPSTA
Description: The activation constants (EC50 in nM) were measured in CHO cell lines expressing oxytocin receptor by IP-One IP1 accumulation assay. These values are the mean±SEM of at least three separate experiments performed in triplicate.

[3] = cited from earlier work

Chain of V1A-R (P37288 whole entry, species assumed): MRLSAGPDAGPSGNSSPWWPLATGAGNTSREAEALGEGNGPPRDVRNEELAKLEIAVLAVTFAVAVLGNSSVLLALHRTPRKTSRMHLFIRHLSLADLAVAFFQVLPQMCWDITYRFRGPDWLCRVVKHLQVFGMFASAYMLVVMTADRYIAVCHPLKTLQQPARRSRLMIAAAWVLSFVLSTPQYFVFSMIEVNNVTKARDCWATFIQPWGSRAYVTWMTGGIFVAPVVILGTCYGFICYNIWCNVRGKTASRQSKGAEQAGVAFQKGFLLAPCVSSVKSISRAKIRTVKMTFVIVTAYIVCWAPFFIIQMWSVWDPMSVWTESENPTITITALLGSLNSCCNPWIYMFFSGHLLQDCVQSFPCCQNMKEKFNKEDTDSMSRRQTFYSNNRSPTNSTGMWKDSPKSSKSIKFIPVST

Cc1cc(C(=O)N2Cc3cnn(C)c3Nc3ccccc32)ccc1CNC(=O)N1C[C@H](F)C[C@H]1C(=S)N(C)C [Compound 1]
IC50 [1]: 250 nM

CO[C@@H]1C[C@@H](C(=S)N(C)C)N(C(=O)NCc2ccc(C(=O)N3Cc4cnn(C)c4Nc4ccccc43)cc2C)C1 [Compound 3]
EC50 [2]: 33 nM

Cc1cc(C(=O)N2Cc3cnn(C)c3Nc3ccccc32)ccc1CNC(=O)N1C[C@H](OCCCO)C[C@H]1C(=S)N(C)C [Compound 6, (2S,4R)-2-(dimethylcarbamothioyl)-4-(3-hydroxypropoxy)-N-[(2-methyl-4-4-methyl-2,4,5,9-tetraazatricyclo[8.4.0.0,3,7]tetradeca-1(14),3(7),5,10,12-pentaene-9-carbonylphenyl)methyl]pyrrolidine-1-carboxamide]
EC50 [2]: 29.8 nM

Cc1cc(C(=O)N2Cc3cnn(C)c3Nc3ccccc32)ccc1CNC(=O)N1C[C@H](OCCCCO)C[C@H]1C(=S)N(C)C [Compound 7, (2S,4R)-2-(dimethylcarbamothioyl)-4-(4-hydroxybutoxy)-N-[(2-methyl-4-4-methyl-2,4,5,9-tetraazatricyclo[8.4.0.0,3,7]tetradeca-1(14),3(7),5,10,12-pentaene-9-carbonylphenyl)methyl]pyrrolidine-1-carboxamide]
EC50 [2]: 11.6 nM

Cc1cc(C(=O)N2Cc3cnn(C)c3Nc3ccccc32)ccc1CNC(=O)N1C[C@H](OCc2cccc(S(N)(=O)=O)c2)C[C@H]1C(=S)N(C)C [Compound 13, (2S,4R)-2-(dimethylcarbamothioyl)-N-[(2-methyl-4-4-methyl-2,4,5,9-tetraazatricyclo[8.4.0.0,3,7]tetradeca-1(14),3(7),5,10,12-pentaene-9-carbonylphenyl)methyl]-4-[(3-sulfamoylphenyl)methoxy]pyrrolidine-1-carboxamide]
EC50 [2]: 33 nM

Cc1cc(C(=O)N2Cc3cnn(C)c3Nc3ccccc32)ccc1CNC(=O)N1C[C@H](OCc2nnn[nH]2)C[C@H]1C(=S)N(C)C [Compound 19, (2S,4R)-2-(dimethylcarbamothioyl)-N-[(2-methyl-4-4-methyl-2,4,5,9-tetraazatricyclo[8.4.0.0,3,7]tetradeca-1(14),3(7),5,10,12-pentaene-9-carbonylphenyl)methyl]-4-[(1H-1,2,3,4-tetrazol-5-yl)methoxy]pyrrolidine-1-carboxamide]
EC50 [2]: 17.4 nM

Cc1cc(C(=O)N2Cc3cnn(C)c3Nc3ccccc32)ccc1CNC(=O)N1CC(OCCC2NC(=O)NC2=O)CC1C(=S)N(C)C [Compound 21, (2S,4R)-2-(dimethylcarbamothioyl)-4-[2-(2,5-dioxoimidazolidin-4-yl)ethoxy]-N-[(2-methyl-4-4-methyl-2,4,5,9-tetraazatricyclo[8.4.0.0,3,7]tetradeca-1(14),3(7),5,10,12-pentaene-9-carbonylphenyl)methyl]pyrrolidine-1-carboxamide]
EC50 [2]: 14.4 nM

CC[C@H](C)[C@@H]1NC(=O)[C@H](Cc2ccc(O)cc2)NC(=O)[C@@H](N)CSSC[C@@H](C(=O)N2CCC[C@H]2C(=O)N[C@@H](CC(C)C)C(=O)NCC(N)=O)NC(=O)[C@H](CC(N)=O)NC(=O)[C@H](CCC(N)=O)NC1=O [OT]
half-life in blood [3]: about 3 minute
